From PMC6429263, “Evolution and Antibacterial Evaluation of 8-Hydroxy-cycloberberine Derivatives as a Novel Family of Antibacterial Agents Against MRSA” (Molecules, 2019)

Columns and labels:
[1] = Stability in liver microsomes, rat; assay type: in vitro ADME, SD rat
Procedure: (§1) The assay was performed with liver microsomes from CD-1 mouse, SD rat and human. Microsomes in 100 mM potassium phosphate buffer (0.5 mg/mL microsomal protein), cofactor MgCl2 (10 mM), tested compound (1 μM, cosolvent (0.01% DMSO), 0.99% CH3OH), and then NADPH (1 mM) at 37 °C for 60 min. The reaction can be started by the addition of liver microsomes or the tested compound or NADPH. Aliquots were sampled at 0, 5, 10, 20, 30 and 60 min incubation, and enzymatic reaction was stopped by protein precipitation in cold acetonitrile including 100 ng/mL tolbutamide and 100 ng/mL labetalol as internal standard. After centrifugation, samples were then analyzed by LC/MS/MS [26].

[2] = Stability in liver microsomes, mouse; assay type: in vitro ADME, CD-1 mouse
Procedure: as §1

[3] = Stability in liver microsomes, human; assay type: in vitro ADME
Procedure: as §1, with “Microsomes in 100 mM potassium phosphate buffer (0.5 mg/mL microsomal protein), cofactor MgCl2 (10 mM), tested compound (1 μM, cosolvent (0.01% DMSO), 0.99% CH3OH), and then NADPH (1 mM) at 37 °C for 60 min.” left out

For `C[C@]12CC[C@H]3[C@@H](CCC4=CC(=O)CC[C@@]43C)[C@@H]1CC[C@@H]2O` [Tes, testosterone, reference compound], the “Remaining Ratio (T = 60 min)” value ([1]; 60 min) was 0%, the half-life at 1 μM ([1]; SD, 1 μM) was 0.6 min and the microsomal CLint at 1 μM ([1]; SD, 1 μM, read-out: CL Int (mic)) was 2350 µL/min/mg. For the same compound, the “Remaining Ratio (T = 60 min)” value ([2]; 60 min) was 0%, the half-life at 1 μM ([2]; CD-1, 1 μM) was 5.5 min and the microsomal CLint at 1 μM ([2]; CD-1, 1 μM, read-out: CL Int (mic)) was 254 µL/min/mg. The half-life at 1 μM ([3]; 1 μM) was 12.9 min and the “Remaining Ratio (T = 60 min)” value ([3]; 60 min) was 3.9%.
